Literature values, collected in US7625410B2, “Stent device and method” (Boston Scientific Scimed, Inc., priority 2001, dated 2009).

What was measured:
[1] = system: human and rat aortic smooth muscle cells and endothelial cell proliferation
[2] = not given; remark: listed apart in the source

solubility in organic solvents (chloroform, ethylacetate acetone, and ethanol): soluble
solubility in water (water): practically insoluble in water
halflife ([2]; assumed value used for the estimate of systemic dosage): 12 h
Compound: C=CC[C@@H]1/C=C(\C)C[C@H](C)C[C@H](OC)[C@H]2O[C@@](O)(C(=O)C(=O)N3CCCC[C@H]3C(=O)O[C@H](/C(C)=C/[C@@H]3CC[C@@H](O)[C@H](OC)C3)[C@H](C)[C@@H](O)CC1=O)[C@H](C)C[C@@H]2OC [tacrolimus]
antiproliferative properties on vascular cells ([1]; human and rat aortic smooth muscle cells and endothelial cells): very modest antiproliferative properties
transition to the secretory smooth muscle cell type ([1]; smooth muscle cells, type responsible for the restenosis build up): practically totally inhibited
distribution in the blood ([2]; blood): primarily intracellular in red blood cells
binding in the plasma ([2]; plasma): bound to α-1 sour glycoproteins and albumins
